The values below come from patent US20120114636A1, “LOW MOLECULAR WEIGHT CYCLIN E (LMW-E) AS A BIOMARKER FOR PERSONALIZATION OF CANCER THERAPIES” (The Board of Regents of the University of Texas System, priority 2009, published 2012).

Format in all cases: cell-based, human
In experiment [1] the test system is cyclin E-associated kinase activity in MCF-7/Ac1 cells. The experiment in a line: Cyclin E-associated kinase assay (histone H1). Particulars: with 25 nM AD, 3 days. The protocol:
Immunoprecipitation and Immunoblotting. Two hundred fifty μg of cell extracts were used per immunoprecipitation with polyclonal antibody to cyclin E or polyclonal antibody to CDK2, coupled to protein A beads. After being washed, the immunoprecipitates were subjected to electrophoresis in 13% gels, transferred to Immobolin P, blocked, and incubated with the indicated antibodies as already described.
MCF-7/Ac1 cells were treated with the indicated concentrations of letrozole and AD for 3 days. Cyclin E kinase assays were performed by immunoprecipitating equal amounts of cell lysate (250 μg) with monoclonal antibodies to cyclin E coupled to protein A beads, using histone H1 as substrate. […] The same cell lysates were subjected to western blot analysis (50 μg of protein) with the indicated antibodies. […] The same cell lysates were first immunoprecipitated with cyclin E followed by western blot for p21 and p27. […] The same cell lysates were first immunoprecipitated with CDK2 followed by western blot for p21 and p27. The levels of proteins were measured by densitometric scanning of the corresponding bands and normalized using actin values. The values indicated at the bottom were compared to the values obtained with untreated cells.

Experiment [2] concerns MCF-7/Ac1 cells. The experiment in a line: Cell number of adenovirus-infected cells (LacZ, cyclin EL, T1, T2). Conditions: for inhibition at 1 µM: Homo sapiens, MCF7, 1 μM letrozole, read-out: inhibition of AD-induced growth. The text has this:
LMW cyclin E, but not full-length cyclin E, overexpressing MCF-7/Ac1 cells partially override the letrozole inhibition of AD-induced S-phase entry and AD-induced CDK2 protein levels. Since overexpression of LMW cyclin E deregulates the G1 to S transition, the inventors interrogated the role of full-length and LMW cyclin E in letrozole response. To this end, the inventors examined the sensitivity of cyclin E overexpressing MCF-7/Ac1 cells to the growth inhibitory effect of letrozole using adenoviruses to overexpress full-length and LMW cyclin E (FIGS. 24A-24D). MCF-7/Ac1 cells were cultured in charcoal stripped serum media (CSSM) for 4 days before infecting them with 4000 m.o.i. of either LacZ, full-length cyclin E (cyclin EL) or LMW cyclin E (cyclin E-T1 and cyclin E-T2). Twenty-four hours later, cells were left either untreated, treated with 25 nM AD alone, or treated with 25 nM AD plus 1 μM letrozole for an additional 3 days (FIGS. 24A-24B). Following the treatment, cells were enumerated or subjected to flow cytometry analysis.
MCF-7/Ac1 cells were cultured in IMEM with 10% charcoal-stripped serum medium (CSSM) without phenol red and with 600 μg/ml of G418 for 4 days before plating. Triplicate wells of 6-well plates were then infected with the indicated adenoviruses (at 4000 m.o.i.) 24 hours before drug treatment. Cells were then left untreated (E2W, estrogen withdrawal) or treated with 25 nM AD (AD) or treated with 25 nM AD and 1 μM letrozole (AD+Let) and collected 3 days later for cell number. Cell growth is expressed as the percentage of the cells compared with the control cells (25 nM AD treated cells). […] MCF-7/Ac1 cells were treated as described in A, and collected for flow cytometry analysis. Histograms represent the S-phase fraction expressed as the percentage of the cells in S-phase compared with the control cells (25 nM AD treated cells). […] The same cell lysates as in A and B were subjected to western blot analysis (50 μg of protein) with cyclin E and CDK2 antibodies. The bar graph represents the densitometric values of the phosphorylated CDK2 bands. […] Left, MCF-7/Ac1 cells were cultured in IMEM with 10% charcoal-stripped serum medium (CSSM) without phenol red and with 600 μg/ml of G418 for 4 days before plating. Cells were then infected with the indicated adenoviruses (at 4000 m.o.i.) 24 hours before drug treatment. Cells were then treated with 25 nM AD and 1 μM letrozole and collected 3 days later for cell number. […] Columns, mean of two to three experiments, each in triplicates; bars, S.D.
To directly address this question, MCF-7/Ac1 cells were cultured in charcoal stripped serum media (CSSM) for 4 days before adding medium with no virus or with 4000 m.o.i. of either LacZ, or LMW cyclin E (cyclin E-T1) adenoviruses. 24 hours later, cells were left untreated, treated with 25 nM AD alone, or treated with 25 nM AD plus 1 μM letrozole for 3 days (FIG. 24D). The AD-induced growth of MCF-7/Ac1 cells was inhibited by letrozole by 51% in uninfected cells and by 58% in LacZ infected cells while the growth of cyclin E-T1 infected cells was inhibited by only 20% (FIG. 24D, left).

Experiment [3] deals with MCF-7/Ac1 cells. The experiment in a line: Sequential AD/letrozole then roscovitine treatment: cell number and CDK2 western blot. Conditions: LMW cyclin E overexpressing cells. The method, then: Medium alone or medium plus DMSO were used as controls. A schematic of the treatment strategy is depicted in FIG. 25A. At the conclusion of the treatment, cells were enumerated and subjected to western blot analysis with CDK2 (total) and phospho-CDK2 antibodies.
Cells were then infected with the indicated adenoviruses (at 4000 m.o.i.) 24 hours before drug treatment.

One may read the inhibition as the drop in the measured response relative to a control, in per cent.

Values joined by “and” are separate entries in the source; they are usually repeats but may differ in a detail not shown here. Identical values can stand only once. Like-named read-outs stand apart in the source and are kept apart here. A value given as a limit tells only on which side of the number the result lay.

As to `N#Cc1ccc(C(c2ccc(C#N)cc2)n2cncn2)cc1` [letrozole], in experiment [1], the “concentration that blocked the AD-induced increase in cyclin E-associated kinase activity” value is no more than 0.125 µM. Further, in the experiment on MCF-7/Ac1 cells [2] (1 μM letrozole, cyclin EL, T1, and T2 infected cells, FIG. 24A), the “inhibition of AD-induced growth” value was “no significant growth inhibition”. Further, the inhibition at 1 µM was determined as 56.1% with MCF-7/Ac1 cells [2] (LacZ infected cells, FIG. 24A); 58% with MCF-7/Ac1 cells [2] (LacZ infected cells, FIG. 24D); 20% with MCF-7/Ac1 cells [2] (cyclin E-T1 infected cells, FIG. 24D); 40.8% in the experiment with MCF-7/Ac1 cells [2] (uninfected cells, FIG. 24A); 51% in the experiment with MCF-7/Ac1 cells [2] (uninfected cells, FIG. 24D). The “increase in AD-induced proliferation not prevented by letrozole” value with MCF-7/Ac1 cells [3] (AD plus 1 μM letrozole) was 2.5 fold and 2.8 fold. Moreover, the “phosphorylated/unphosphorylated CDK2 ratio” value in the experiment with MCF-7/Ac1 cells [3] (AD plus letrozole) was 134-234%.
